Results taken from patent US20240309016A1, “MACROCYCLIC HETEROCYCLE COMPOUNDS AND USE THEREOF” (TAKEDA PHARMACEUTICAL COMPANY LIMITED, priority 2023, published 2024).
Read-outs that look alike come from different tables or passages of the source.

What was measured:
human OX2 receptor = molecular target: T1, human OX2 receptor (Homo sapiens, UniProt O43614); test: Measurement of orexin type 2 receptor agonist activity (Experimental Example 2; Fluo-4 AM calcium fluorescence, FDSS μCELL); format: cell-based; details: compound at 3 μM; CHO cells expressing human OX2 receptor; DMSO = 0%, 10 nM orexin A (human) = 100%
T1 construct: expressed in transfected cells
T1 sequence (O43614 1-444): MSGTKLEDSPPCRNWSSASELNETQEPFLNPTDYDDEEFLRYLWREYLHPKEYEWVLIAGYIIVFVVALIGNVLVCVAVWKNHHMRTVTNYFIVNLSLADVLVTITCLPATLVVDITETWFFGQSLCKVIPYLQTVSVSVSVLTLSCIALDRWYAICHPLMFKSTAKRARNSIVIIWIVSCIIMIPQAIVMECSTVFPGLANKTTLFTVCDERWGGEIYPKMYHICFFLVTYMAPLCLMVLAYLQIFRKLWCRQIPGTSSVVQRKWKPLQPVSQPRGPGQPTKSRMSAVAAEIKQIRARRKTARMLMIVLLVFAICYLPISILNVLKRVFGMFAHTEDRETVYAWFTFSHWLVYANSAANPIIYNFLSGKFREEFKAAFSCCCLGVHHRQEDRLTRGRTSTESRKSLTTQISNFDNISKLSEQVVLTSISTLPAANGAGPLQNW
How it was run: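 Agonism was tested in CHO-K1 cells stably expressing human OX2 receptor (residues 1-444), loaded with Fluo-4 AM plus probenecid. Calcium fluorescence was recorded for 1 min 40 s after compound addition. Activity (%) was scaled between DMSO (0%) and 10 nM orexin A (100%) and reported at 3 μM compound.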

OX2R agonist activity (3 μM, %) (human OX2 receptor) [%]	Molecule	also measured
	Cc1ccc2nc1Oc1cccc(c1F)C[C@H]1[C@@H](NC(=O)OCc3ccccc3)C(F)(F)CN1C(=O)NC2	ring closure, yield of all isomers (from Cc1ccc(CN)nc1Oc1cccc(C[C@@H]2NCC(F)(F)[C@@H]2NC(=O)OCc2ccccc2)c1F, other bond, di(N-succinimidyl) carbonate, THF, 2.0 mM, 70.0 °C, 5.2 h): 78.8%
107	Cc1ccc2nc1Oc1cccc(c1)C[C@H]1[C@@H](NS(C)(=O)=O)CCN1C(=O)NC2 [Example 1, N-[(15aS,16S)-7-methyl-1-oxo-2,3,15a,16,17,18-hexahydro-1H,15H-4,8-(azeno)-10,14-(metheno)pyrrolo[1,2-j][1,8,10]oxadiazacyclo-heptadecin-16-yl]methanesulfonamide]	ring closure, yield of all isomers (from Cc1ccc(CN)nc1Oc1cccc(C[C@@H]2NCC[C@@H]2NS(C)(=O)=O)c1, other bond, CDI/DIPEA, DMF, 2.15 mM, 25.0 °C, 12.0 h): 29.9%
96	Cc1ccc2nc1Oc1cccc(c1)C[C@H]1[C@@H](NS(C)(=O)=O)C(F)(F)CN1C(=O)NC2 [Example 2, N-[(15aS,16R)-17,17-difluoro-7-methyl-1-oxo-2,3,15a,16,17,18-hexahydro-1H,15H-4,8-(azeno)-10,14-(metheno)pyrrolo[1,2-j][1,8,10]oxadiazacyclo-heptadecin-16-yl]methanesulfonamide]	ring closure, yield of all isomers (from Cc1ccc(CN)nc1Oc1cccc(C[C@@H]2NCC(F)(F)[C@@H]2NS(C)(=O)=O)c1, other bond, CDI/DIPEA, DMF, 2.0 mM, 25.0 °C, 14.0 h): 7.6%
105	Cc1ccc2nc1Oc1cccc(c1F)C[C@H]1[C@@H](NS(C)(=O)=O)C(F)(F)CN1C(=O)NC2 [Example 4, N-[(15aS,16R)-17,17,20-trifluoro-7-methyl-1-oxo-2,3,15a,16,17,18-hexahydro-1H,15H-4,8-(azeno)-10,14-(metheno)pyrrolo[1,2-j][1,8,10]oxadiazacyclo-heptadecin-16-yl]methanesulfonamide]	ring closure, yield of all isomers (from Cc1ccc(CN)nc1Oc1cccc(C[C@@H]2NCC(F)(F)[C@@H]2NS(C)(=O)=O)c1F, other bond, di(N-succinimidyl) carbonate/DIPEA, THF, 7.42 mM, 25.0 °C, 16.0 h): 40.1%
102	CCS(=O)(=O)N[C@@H]1[C@@H]2Cc3cccc(c3F)Oc3nc(ccc3C)CNC(=O)N2CC1(F)F [Example 5, N-[(15aS,16R)-17,17,20-trifluoro-7-methyl-1-oxo-2,3,15a,16,17,18-hexahydro-1H,15H-4,8-(azeno)-10,14-(metheno)pyrrolo[1,2-j][1,8,10]oxadiazacyclo-heptadecin-16-yl]ethanesulfonamide]	ring closure, yield of all isomers (from CCS(=O)(=O)N[C@@H]1[C@H](Cc2cccc(Oc3nc(CN)ccc3C)c2F)NCC1(F)F, other bond, di(N-succinimidyl) carbonate/4-methylmorpholine/DIPEA, THF, 1.81 mM, 25.0 °C, 12.0 h): 21%
103	Cc1ccc2nc1Oc1cccc(c1)C[C@H]1[C@@H](NS(C)(=O)=O)CCN1C(=O)CC2 [Example 7, N-[(1S,19aS)-11-methyl-5-oxo-2,3,6,7,19,19a-hexahydro-1H, 5H-8,12-(azeno)-14,18-(metheno)pyrrolo[2,1-h][1,9]oxazacycloheptadecin-1-yl]methanesulfonamide]	ring closure, yield of all isomers (from Cc1ccc(CCC(=O)O)nc1Oc1cccc(C[C@@H]2NCC[C@@H]2NS(C)(=O)=O)c1, amide bond, PyBOP/TEA, THF, 0.231 mM, 25.0 °C, 4.0 h): 20%
96	Cc1ccc2nc1Oc1cccc(c1F)C[C@H]1[C@@H](NS(C)(=O)=O)[C@@H](F)CN1C(=O)NC2 [Example 10, N-[(15aS,16R,17S)-17,20-difluoro-7-methyl-1-oxo-2,3,15a,16,17,18-hexahydro-1H,15H-4,8-(azeno)-14,10-(metheno)pyrrolo[1,2-j][1,8,10]oxadiazacyclo-heptadecin-16-yl]methanesulfonamide]	ring closure, yield of all isomers (from Cc1ccc(CN)nc1Oc1cccc(C[C@@H]2NC[C@H](F)[C@@H]2NS(C)(=O)=O)c1F, other bond, CDI, THF, 2.12 mM, 25.0 °C, 18.0 h): 16.7%
100	O=C1NCc2ccc(Cl)c(n2)Oc2cccc(c2F)C[C@H]2[C@@H](NS(=O)(=O)C3CC3)C(F)(F)CN12 [Example 22, N-[(15aS,16R)-7-chloro-17,17,20-trifluoro-1-oxo-2,3,15a,16,17,18-hexahydro-1H,15H-4,8-(azeno)-14,10-(metheno)pyrrolo[1,2-j][1,8,10]oxadiazacyclo-heptadecin-16-yl]cyclopropanesulfonamide]	ring closure, yield of all isomers (from NCc1ccc(Cl)c(Oc2cccc(C[C@@H]3NCC(F)(F)[C@@H]3NS(=O)(=O)C3CC3)c2F)n1, other bond, di(N-succinimidyl) carbonate, THF, 1.85 mM, 25.0 °C, 0.08 h): 49.4%
104	Cc1ccc2nc1OCc1cccc(c1F)C[C@H]1[C@@H](NS(C)(=O)=O)C(F)(F)CN1C(=O)NC2 [Example 84, N-[(16aS,17R)-18,18,21-trifluoro-7-methyl-1-oxo-2,3,16a,17,18,19-hexahydro-1H,10H,16H-4,8-(azeno)-15,11-(metheno)pyrrolo[1,2-j][1,8,10]oxadiazacyclo-octadecin-17-yl]methanesulfonamide]	
95	CS(=O)(=O)N[C@@H]1[C@@H]2Cc3cccc(c3F)Oc3nc(cs3)CNC(=O)N2CC1(F)F [Example 85, N-[(14aS,15R)-16,16,19-trifluoro-1-oxo-2,3,14a,15,16,17-hexahydro-1H,14H-4,7-(azeno)-9,13-(metheno)pyrrolo[1,2-i][1,3,7,9]oxathiadiazacyclo-hexadecin-15-yl]methanesulfonamide]	
105	CCS(=O)(=O)N[C@H]1[C@@H](F)CN2C(=O)COc3ccc(C(F)F)c(n3)Oc3cccc(c3)C[C@@H]12 [Example 87, N-[(15aS,16R,17S)-7-(difluoromethyl)-17-fluoro-1-oxo-1,2,15a,16,17,18-hexahydro-15H-4,8-(azeno)-14,10-(metheno)pyrrolo[1,2-d][1,12,4]dioxazacyclo-heptadecin-16-yl]ethanesulfonamide]	
109	CS(=O)(=O)N[C@@H]1[C@@H]2Cc3cccc(c3F)Oc3nc(ccc3C3CC3)CNC(=O)N2CC1(F)F [Example 88, N-[(15aS,16R)-7-cyclopropyl-17,17,20-trifluoro-1-oxo-2,3,15a,16,17,18-hexahydro-1H,15H-4,8-(azeno)-14,10-(metheno)pyrrolo[1,2-j][1,8,10]oxadiazacyclo-heptadecin-16-yl]methanesulfonamide]	
106	CS(=O)(=O)N[C@@H]1[C@@H]2Cc3cccc(c3)Oc3nc(ccc3Cl)CNC(=O)N2CC1(F)F [Example 92, N-[(15aS,16R)-7-chloro-17,17-difluoro-1-oxo-2,3,15a,16,17,18-hexahydro-1H,15H-4,8-(azeno)-14,10-(metheno)pyrrolo[1,2-j][1,8,10]oxadiazacyclohepta-decin-16-yl]methanesulfonamide]	
109	CS(=O)(=O)N[C@@H]1[C@@H]2Cc3cccc(c3)Oc3nc(ccc3C(F)F)CNC(=O)N2CC1(F)F [Example 93, N-[(15aS,16R)-7-(difluoromethyl)-17,17-difluoro-1-oxo-2,3,15a,16,17,18-hexahydro-1H,15H-4,8-(azeno)-14,10-(metheno)pyrrolo[1,2-j][1,8,10]oxadiazacyclohepta-decin-16-yl]methanesulfonamide]	
109	CS(=O)(=O)N[C@@H]1[C@@H]2Cc3cccc(c3F)COc3nc(ccc3Cl)CNC(=O)N2CC1(F)F [Example 94, N-[(16aS,17R)-7-chloro-18,18,21-trifluoro-1-oxo-2,3,16a,17,18,19-hexahydro-1H,10H,16H-4,8-(azeno)-15,11-(metheno)pyrrolo[1,2-j][1,8,10]oxadiazacycloocta-decin-17-yl]methanesulfonamide]	
107	CS(=O)(=O)N[C@@H]1[C@@H]2Cc3cccc(c3)Oc3nc(ccc3Cl)OCC(=O)N2CC1(F)F [Example 96, N-[(15aS,16R)-7-chloro-17,17-difluoro-1-oxo-1,2,15a,16,17,18-hexahydro-15H-4,8-(azeno)-14,10-(metheno)pyrrolo[1,2-d][1,12,4]dioxazacyclo-heptadecin-16-yl]methanesulfonamide]	
108	Cc1ccc2nc1Oc1cccc(c1F)C[C@H]1[C@@H](NS(=O)(=O)C(C)C)C(F)(F)CN1C(=O)NC2 [Example 97, N-[(15aS,16R)-17,17,20-trifluoro-7-methyl-1-oxo-2,3,15a,16,17,18-hexahydro-1H,15H-4,8-(azeno)-14,10-(metheno)pyrrolo[1,2-j][1,8,10]oxadiazacyclo-heptadecin-16-yl]propane-2-sulfonamide]	

Molecule	OX2R agonist activity (3 μM, %) (human OX2 receptor) [%]	also measured
N-[(15aS,16R)-17,17- difluoro-7-methyl-1-oxo- 2,3,15a,16,17,18-hexahydro- 1H,15H-4,8-(azeno)-10,14- (metheno)pyrrolo[1,2- j][1,8,10]oxadiazacyclo- heptadecin-16- yl]ethanesulfonamide [Example 6]	99	
